Results published in patent US10501421B1, “Substituted benzimidazoles as modulators of Ras signaling” (VANDERBILT UNIVERSITY, priority 2017, dated 2019).
pEC50, pKi: −log10 of the molar value. Where a name gives a salt, the structure may show the parent alone.

Key:
[1] = target: Ras GEF SOS (Son of Sevenless) (Homo sapiens, UniProt Q07889); experiment: SOS-mediated nucleotide exchange on Ras (BODIPY-GDP fluorescence); format: biochemical; settings: SOS-mediated exchange of BODIPY-GDP for GTP on Ras
Sequence of Ras GEF SOS (Son of Sevenless) (P01112 1-166 partner limits assumed, one chain of several): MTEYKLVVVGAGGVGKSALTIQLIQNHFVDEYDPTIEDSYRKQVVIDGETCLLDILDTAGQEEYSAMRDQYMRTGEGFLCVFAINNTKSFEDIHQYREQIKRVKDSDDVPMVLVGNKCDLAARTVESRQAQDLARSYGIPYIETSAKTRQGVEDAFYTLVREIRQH
Outline: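 Exchange rates were taken from single-exponential fits of the fluorescence time course as BODIPY-GDP on Ras was replaced by GTP. Compound went in first, then GTP and SOS. Mean rates plotted against concentration gave EC50 by four-parameter dose-response fitting.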

Son of Sevenless (SOS) = target: T1, Son of Sevenless (SOS) (Homo sapiens, UniProt Q07889); experiment: Binding to SOS, fluorescence polarization anisotropy (FPA) probe displacement; settings: displacement of FITC-conjugated probe (Example 285), affinity calculated from IC50
T1 sequence (Q07889 564-1049 limits assumed): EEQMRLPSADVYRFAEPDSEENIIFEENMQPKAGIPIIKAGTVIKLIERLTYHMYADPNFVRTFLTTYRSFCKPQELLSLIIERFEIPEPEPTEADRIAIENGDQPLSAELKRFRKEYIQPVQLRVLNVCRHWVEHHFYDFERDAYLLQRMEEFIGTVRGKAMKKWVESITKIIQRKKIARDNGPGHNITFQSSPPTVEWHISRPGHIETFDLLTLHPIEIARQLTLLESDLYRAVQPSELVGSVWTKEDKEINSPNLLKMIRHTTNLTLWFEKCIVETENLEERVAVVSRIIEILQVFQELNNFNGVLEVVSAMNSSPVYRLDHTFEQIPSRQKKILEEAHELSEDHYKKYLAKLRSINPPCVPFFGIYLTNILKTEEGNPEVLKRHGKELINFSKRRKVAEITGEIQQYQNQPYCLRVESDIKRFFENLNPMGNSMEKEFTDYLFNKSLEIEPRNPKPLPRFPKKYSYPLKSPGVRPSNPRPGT
Procedure: Compounds of the present invention were tested for their ability to bind to the Ras guanine exchange factor (GEF) Son of Sevenless (SOS). Binding to SOS was measured using a Fluorescence polarization anisotropy (FPA) assay that assesses the ability of a test compound to displace a fluorescent FITC-conjugated compound (Example 285). Briefly, the labeled probe compound is incubated with SOS in buffer. Changes in anisotropy indicative of displacement of the labeled probe for a test compound are assessed over a dose range of test compound. Data was analyzed by plotting fluorescence anisotropy values as a function of compound concentration. IC50 values were determined using a four-parameter dose-response (variable slope) and binding affinities were calculated from this IC50 value. This assay is performed in a method analogous to the assay disclosed in: Burns, M. C.; Sun, Q.; Daniels, R. N.; Camper, D. V.; Kennedy, J. P.; Phan, J.; Olejniczak, E. O.; Lee, T.; Waterson, A. G.; Rossanese, O. W.; Fesik, S. W. “Approach for targeting Ras with small molecules that activate SOS-mediated nucleotide exchange” Proc. Natl. Acad. Sci. 2014; 11(9): 3401-3406. PMCID: PMC3948241.

## Cc1cc2nc(NCCCN)n(Cc3cc(C)c(F)c(C)c3)c2cc1C [Example 43, N^1-(1-(4-fluoro-3,5-dimethylbenzyl)-5,6-dimethyl-1H-benzo[d]imidazol-2-yl)propane-1,3-diamine trifluoroacetate]
[1]
  pEC50: 4.52 to 5.30
Son of Sevenless (SOS)
  pKi: < 5.30

## Cc1cc(N2CCC(N)CC2)c2nc(N3CCNCC3)n(Cc3cc(C)c(F)c(C)c3)c2c1 [Example 188, 1-(1-(4-fluoro-3,5-dimethylbenzyl)-6-methyl-2-(piperazin-1-yl)-1H-benzo[d]imidazol-4-yl)piperidin-4-amine trifluoroacetate]
[1]
  pEC50: 5.30 to 6.00
Son of Sevenless (SOS)
  pKi: 6.00 to 6.30

## Fc1ccc(Cn2c(N3CCNCC3)nc3ccc(Br)cc32)cc1Cl [Example 63, 6-bromo-1-(3-chloro-4-fluorobenzyl)-2-(piperazin-1-yl)-1H-benzo[d]imidazole trifluoroacetate]
[1]
  pEC50: > 6.00
Son of Sevenless (SOS)
  pKi: 6.00 to 6.30

## Cc1cc(Cn2c(N3CCNCC3)nc3c(-c4ccccc4Cl)cc(Cl)cc32)cc(C)c1F [Example 307, 6-chloro-4-(2-chlorophenyl)-1-(4-fluoro-3,5-dimethylbenzyl)-2-(piperazin-1-yl)-1H-benzo[d]imidazole]
[1]
  pEC50: 5.30 to 6.00
Son of Sevenless (SOS)
  pKi: > 6.30

## Cc1cc2c(nc(N3CCNCC3)n2Cc2ccc(F)c(C)c2)c(-c2ccccc2F)n1 [Example 217, 1-(4-fluoro-3-methylbenzyl)-4-(2-fluorophenyl)-6-methyl-2-(piperazin-1-yl)-1H-imidazo[4,5-c]pyridine]
[1]
  pEC50: 5.30 to 6.00
Son of Sevenless (SOS)
  pKi: < 5.30

## OCc1cc(Cl)cc2c1nc(N1CCNCC1)n2Cc1ccc(F)c(Cl)c1 [Example 278, [6-chloro-1-[(3-chloro-4-fluorophenyl)methyl]-2-piperazin-1-ylbenzimidazol-4-yl]methanol]
[1]
  pEC50: > 6.00
Son of Sevenless (SOS)
  pKi: 5.30 to 6.00

## CCC[C@H](N)c1cccc2c1nc(N1CCNCC1)n2Cc1ccc(F)c(Cl)c1 [Example 165, (S)-1-(1-(3-chloro-4-fluorobenzyl)-2-(piperazin-1-yl)-1H-benzo[d]imidazol-4-yl)butan-1-amine trifluoroacetate]
[1]
  pEC50: 5.30 to 6.00
Son of Sevenless (SOS)
  pKi: 5.30 to 6.00

## Cc1cc2nc(NCCN)n(CC3CCCCC3)c2cc1C [Example 38, N^1-(1-(cyclohexylmethyl)-5,6-dimethyl-1H-benzo[d]imidazol-2-yl)ethane-1,2-diamine trifluoroacetate]
[1]
  pEC50: 4.52 to 5.30
Son of Sevenless (SOS)
  pKi: < 5.30

## COC(=O)c1cnn(CCN(C)C)c1-c1cc(C)cc2c1nc(N1CCNCC1)n2Cc1ccc(F)c(Cl)c1 [Example 180, methyl 5-(1-(3-chloro-4-fluorobenzyl)-6-methyl-2-(piperazin-1-yl)-1H-benzo[d]imidazol-4-yl)-1-(2-(dimethylamino)ethyl)-1H-pyrazole-4-carboxylate]
[1]
  pEC50: > 6.00
Son of Sevenless (SOS)
  pKi: 5.30 to 6.00

## CCNCc1c(C)c(C)cc2c1nc(NCCN)n2Cc1ccc(F)c(Cl)c1 [Example 147, N^1-(1-(3-chloro-4-fluorobenzyl)-4-((ethylamino)methyl)-5,6-dimethyl-1H-benzo[d]imidazol-2-yl)ethane-1,2-diamine trifluoroacetate]
[1]
  pEC50: > 6.00
Son of Sevenless (SOS)
  pKi: 5.30 to 6.00

## Cc1cc2nc(N3CCNCC3)n(Cc3ccc(Cl)cc3)c2cc1C [Example 19, 1-(4-chlorobenzyl)-5,6-dimethyl-2-(piperazin-1-yl)-1H-benzo[d]imidazole trifluoroacetate]
[1]
  pEC50: 4.52 to 5.30
Son of Sevenless (SOS)
  pKi: < 5.30

## CC(C)Cn1nccc1-c1cc(Cl)cc2c1nc(N1CCNCC1)n2Cc1ccc(F)c(Cl)c1 [Example 174, 6-chloro-1-(3-chloro-4-fluorobenzyl)-4-(1-isobutyl-1H-pyrazol-5-yl)-2-(piperazin-1-yl)-1H-benzo[d]imidazole trifluoroacetate]
[1]
  pEC50: 5.30 to 6.00
Son of Sevenless (SOS)
  pKi: > 6.30

## Cc1cc(C2=CCNCC2)c2nc(N3CCNCC3)n(Cc3cc(C)c(F)c(C)c3)c2c1 [Example 103, 1-(4-fluoro-3,5-dimethylbenzyl)-6-methyl-2-(piperazin-1-yl)-4-(1,2,3,6-tetrahydropyridin-4-yl)-1H-benzo[d]imidazole]
[1]
  pEC50: 5.30 to 6.00
Son of Sevenless (SOS)
  pKi: > 6.30

## CCc1cc2c(cc1C)nc(N1CCNCC1)n2Cc1ccc(F)c(Cl)c1 [Example 66, 1-(3-chloro-4-fluorobenzyl)-6-ethyl-5-methyl-2-(piperazin-1-yl)-1H-benzo[d]imidazole trifluoroacetate]
[1]
  pEC50: 4.52 to 5.30
Son of Sevenless (SOS)
  pKi: < 5.30

## CC(C)N1CC[C@@H](C(=O)c2ccccc2)[C@@H]1c1cc(Cl)cc2c1nc(N1CCNCC1)n2Cc1ccc(F)c(Cl)c1 [Example 153, ((2R,3R)-2-(6-chloro-1-(3-chloro-4-fluorobenzyl)-2-(piperazin-1-yl)-1H-benzo[d]imidazol-4-yl)-1-isopropylpyrrolidin-3-yl)(phenyl)methanone trifluoroacetate]
[1]
  pEC50: 4.52 to 5.30
Son of Sevenless (SOS)
  pKi: < 5.30

## CN(CCCO)Cc1cc(Cl)cc2c1nc(N1CCNCC1)n2Cc1ccc(F)c(Cl)c1 [Example 135, 3-(((6-chloro-1-(3-chloro-4-fluorobenzyl)-2-(piperazin-1-yl)-1H-benzo[d]imidazol-4-yl)methyl)(methyl)amino)propan-1-ol trifluoroacetate]
[1]
  pEC50: > 6.00
Son of Sevenless (SOS)
  pKi: 5.30 to 6.00

## Cc1cc2nc(NCCN)n(Cc3ccc(F)c(Cl)c3)c2cc1Cl [Example 69, N^1-(6-chloro-1-(3-chloro-4-fluorobenzyl)-5-methyl-1H-benzo[d]imidazol-2-yl)ethane-1,2-diamine trifluoroacetate]
[1]
  pEC50: > 6.00
Son of Sevenless (SOS)
  pKi: 6.00 to 6.30

## CCCN1CC[C@@H](C(=O)c2ccccc2)[C@H]1c1cc(Cl)cc2c1nc(N1CCNCC1)n2Cc1cc(C)c(F)c(C)c1 [Example 148, ((2S,3R)-2-(6-chloro-1-(4-fluoro-3,5-dimethylbenzyl)-2-(piperazin-1-yl)-1H-benzo[d]imidazol-4-yl)-1-propylpyrrolidin-3-yl)(phenyl)methanone trifluoroacetate]
[1]
  pEC50: 5.30 to 6.00
Son of Sevenless (SOS)
  pKi: 6.00 to 6.30

## Cc1cc(N2CCNCC2)c2nc(N3CCNCC3)n(Cc3cc(C)c(F)c(C)c3)c2c1 [Example 190, 1-(4-fluoro-3,5-dimethylbenzyl)-6-methyl-2,4-di(piperazin-1-yl)-1H-benzo[d]imidazole trifluoroacetate]
[1]
  pEC50: > 6.00
Son of Sevenless (SOS)
  pKi: 6.00 to 6.30

## Cc1cc(Cn2c(N3CCNCC3)nc3c(OCCN4CCCC4)cccc32)ccc1F [Example 208, 1-(4-fluoro-3-methylbenzyl)-2-(piperazin-1-yl)-4-(2-(pyrrolidin-1-yl)ethoxy)-1H-benzo[d]imidazole]
[1]
  pEC50: > 6.00
Son of Sevenless (SOS)
  pKi: < 5.30

## Cc1cc(Cn2c(N3CCNCC3)nc3c(C4=CCNCC4)cc(Cl)cc32)cc(C)c1F [Example 304, 6-chloro-1-(4-fluoro-3,5-dimethylbenzyl)-2-(piperazin-1-yl)-4-(1,2,3,6-tetrahydropyridin-4-yl)-1H-benzo[d]imidazole]
[1]
  pEC50: > 6.00
Son of Sevenless (SOS)
  pKi: > 6.30

## Cc1cc(Cn2c(N3CCNCC3)nc3c(-c4c(C)cccc4C#Cc4ccccc4Cl)cc(Cl)cc32)cc(C)c1F [Example 184, 6-chloro-4-(2-((2-chlorophenyl)ethynyl)-6-methylphenyl)-1-(4-fluoro-3,5-dimethylbenzyl)-2-(piperazin-1-yl)-1H-benzo[d]imidazole trifluoroacetate]
[1]
  pEC50: 5.30 to 6.00
Son of Sevenless (SOS)
  pKi: 6.00 to 6.30

## C=Cc1cc2c(cc1C)nc(NCCN)n2Cc1ccc(F)c(Cl)c1 [Example 65, N^1-(1-(3-chloro-4-fluorobenzyl)-5-methyl-6-vinyl-1H-benzo[d]imidazol-2-yl)ethane-1,2-diamine trifluoroacetate]
[1]
  pEC50: 5.30 to 6.00
Son of Sevenless (SOS)
  pKi: 5.30 to 6.00

## Cc1cc(OCCN(C)C)c2nc(N3CCNCC3)n(Cc3cc(C)c(F)c(C)c3)c2c1 [Example 203, 2-((1-(4-fluoro-3,5-dimethylbenzyl)-6-methyl-2-(piperazin-1-yl)-1H-benzo[d]imidazol-4-yl)oxy)-N,N-dimethylethan-1-amine]
[1]
  pEC50: > 6.00
Son of Sevenless (SOS)
  pKi: 6.00 to 6.30

## Cc1cc(OCCN)c2nc(NCCN)n(Cc3cc(C)c(F)c(C)c3)c2c1 [Example 320, N^1-(4-(2-aminoethoxy)-1-(4-fluoro-3,5-dimethylbenzyl)-6-methyl-1H-benzo[d]imidazol-2-yl)ethane-1,2-diamine]
[1]
  pEC50: > 6.00
Son of Sevenless (SOS)
  pKi: 6.00 to 6.30
